# Measurements taken from patent US5919823A, “Treatment of secondary movement disorders using large neutral amino acids” (The Research Foundation For Mental Hygiene, priority 1997, dated 1999).
# Like-named read-outs stand apart in the source and are kept apart here.
# Tests used:
# [1] = cited from earlier work
# [2] = in vivo; cited from earlier work
# [3] = Phenylalanine challenge, tardive dystonia symptoms (Study Three, Example 4); assay type: in vivo, patients (psychotic males and females); settings: 100 mg/kg
# Experimental: (§1) A third study (Study Three) was a large scale replication of Study Two with some improved technical methodology; most importantly, the switch from a protein challenge to a phenylalanine challenge and the weight standardization of the phenylalanine challenge (100 mg/kg). This investigation was conducted in 209 psychotic males and 103 psychotic females. […] This finding was independent of the age of the patient.
# (§2) As shown below, the data from this study has also enabled the present inventor to study the effect of the phenylalanine challenge on the symptom levels of Parkinsonism, akathisia and tardive dystonia. This information is important in justifying the usefulness of large neutral amino acid treatments for these disorders.
# Thus, more than a majority of patients (57.9%) did respond to the phenylalanine challenge. […] Patients without coexisting TD were much more likely to improve their tardive dystonia symptom status after a phenylalanine challenge than patients with coexisting TD, while patients with coexisting TD were much more likely to show a higher level of symptom worsening than those without coexisting TD.
# [4] = Phenylalanine challenge, akathisia symptoms (Study Three, Example 4); assay type: in vivo, patients (psychotic males and females); settings: 100 mg/kg
# Experimental: as §1, §2
# The large percentage (81.0%) of patients whose symptoms were impacted by the phenylalanine challenge supports the value of plasma large neutral amino acid manipulation in the treatment of this disorder. […] Patients without coexisting TD were more likely to show a higher level of symptom worsening than those with coexisting TD. As said for Parkinsonism, above, though it is the case that there is a case by case aspect to treatment success which makes prediction difficult, one can set forth some predictive generalizations as below: […]
# [5] = after challenge administration, most of the subjects; cited from earlier work
# [6] = of the large neutral amino acids; cited from earlier work
# [7] = Plasma large neutral amino acid and phenylethylamine levels, fasting and 2 hours after protein challenge (Study Two); settings: for Plasma level, Post-loading / Plasma LNAA Ratio, Post-loading: 2 hours after protein challenge; for Plasma level, Post-loading / Plasma level, Fasting / Plasma LNAA Ratio, Post-loading / Plasma LNAA Ratio, Fasting: mean ± SD
# Experimental: Blood samples were drawn from patients after an overnight fast and 2 hours after the ingestion of a protein challenge. This challenge was served in the form of a breakfast which consisted of orange juice, a cheese omelette, ham, a waffle and coffee.
# The blood samples were assayed for the levels of plasma large neutral amino acids; phenylalanine, tyrosine, tryptophan, alanine, isoleucine, leucine, valine, histidine, and threonine, and for the levels of phenylethylamine. The latter was also measured because it is a major metabolite of phenylalanine and considered to be a neuromodulator.
# The plasma amino acids, with the exception of tryptophan, were analyzed by phenylisothiocyanate (PITC) derivation followed by HPLC. The analysis of tryptophan was performed using HPLC with spectrofluormetric detection.
# The plasma values of the amino acids were studied both as actual levels and as the ratio of phenylalanine level to the level of the other large neutral amino acids in the plasma. This ratio serves as an index of the entry of phenylalanine into the brain, which accounts for the competition of the other large neutral amino acids (LNAA) with phenylalanine (Phe) at the blood brain barrier, as discussed. previously. This ratio is calculated as follows: [formula]
# [8] = Phenylalanine challenge, Parkinsonism symptoms (Study Three, Example 4); assay type: in vivo, patients (psychotic males and females); settings: 100 mg/kg
# Experimental: as §1, §2
# 185 (59.3%) of the study patients made criterion for a case of Parkinsonism; […]. […] The large percentage (88.6%) of patients whose symptoms were impacted by the phenylalanine challenge supports the value of plasma large neutral amino acid manipulation in the treatment of this disorder. Further, as is seen in Table 3 below, this pattern of change was quite similar whether or not the patient had coexisting tardive dyskinesia. Though there is a case by case aspect to treatment success which makes prediction difficult, one can set forth some predictive generalizations as below. A further caveat is that because of the possible case of the worsening of a coexisting disorder the clinician must first treat the disorder that is causing the patient the most difficulty. Difficulty would be defined by some interaction between severity of symptom and disorder.
# [9] = Multi-challenge study, videotaped TD movement counts (Study Four, Example 2); assay type: in vivo, male patients
# Experimental: A single patient was exposed over a period of several weeks to multiple dietary challenges, at the rate of one baseline day and one challenge day per week.
# The baseline days were Tuesdays and the challenge days were Wednesdays.
# On both Tuesdays and Wednesdays a videotaped evaluation procedure for TD was conducted and videotaped TD movement count sessions were held. These were 2 hours post-coffee on Tuesday and 2 hours post challenge on Wednesday. Movement counts were blindly rated from the videotapes by the present inventor.
# Evaluation sessions were conducted at the same time on both days with patients fasting (except for one cup of decaffeinated coffee) on the baseline days.
# A carbohydrate challenge breakfast; 223 grams of carbohydrates, 1369 calories, less than 4% protein.
# A 100 mg/kg challenge of Phe.
# A BCAA dietary supplement as follows:
# a) 2 patients had 209 mg/kg doses of BCAA powder given in orange juice
# The BCAA powder given in orange juice and in the flavored formulation at 150 mg/kg and 275 mg/kg consisted of 30 parts--valine, 30 parts-isoleucineand 40 parts-leucine.
# [10] = Plasma phenylalanine response to phenylalanine challenge in TD-yes and TD-no patients (Study Three); assay type: in vivo, psychotic males and females; settings: 100 mg/kg, TD Yes vs TD No patients
# Text: In this work (Study Two and Three) the plasma level tells us the actual level of phenylalanine in the blood and the phenylalanine/large neutral amino acid ratio gives us a marker relative to the other large neutral amino acids. This ratio thus provides information on brain levels of phenylalanine, or more specifically, the penetrance past the blood brain barrier of phenylalanine. This is so because it is known that phenylalanine competes with the other large neutral amino acids, such as tyrosine, tryptophan, isoleucine, leucine and valine for entry into the brain across the blood brain barrier.
# serotonin receptors = settings: animals; cited from earlier work
# [11] = in vivo; cited from earlier work; remark: listed apart in the source
# [12] = 2 hours, ALL (n=185), listed as Phenylalanine
# [13] = TD Symptom Persistence group (n = 15)
# [14] = TD Symptom Remission group (n = 15)
structure (smiles),measurement,setting,value
N[C@@H](Cc1c[nH]c2ccc(O)cc12)C(=O)O [5-hydroxytryptophan],effect on TD,"[1]; seven patients, concomitant administration with carbidopa",no change in TD
NC(Cc1c[nH]c2ccccc12)C(=O)O [D-L tryptophan],effect on TD,[1]; 4 patients,no change in TD
CN1CCN(C2=Nc3cc(Cl)ccc3Nc3ccccc32)CC1 [clozapine],movement disorder side-effects,[2],less likely to result in movement disorder side-effects
same,other side effects,[2],carries the risk of other serious life-threatening side effects
N[C@@H](Cc1ccccc1)C(=O)O [phenylalanine],patients whose tardive dystonia responded to the phenylalanine challenge,[3]; 2 hours,57.9%
same,"Tardive dystonia BETTER, %","[3]; 2 hours, ALL (n=19)",21.0%
same,"Tardive dystonia BETTER, No.","[3]; 2 hours, ALL (n=19)",4 patients
same,"Tardive dystonia NO CHANGE, %","[3]; 2 hours, ALL (n=19)",42.1%
same,"Tardive dystonia NO CHANGE, No.","[3]; 2 hours, ALL (n=19)",8 patients
same,"Tardive dystonia WORSE, %","[3]; 2 hours, ALL (n=19)",36.9%
same,"Tardive dystonia WORSE, No.","[3]; 2 hours, ALL (n=19)",7 patients
same,"Tardive dystonia BETTER, %",[3]; TD-NO (n=5),60.0%
same,"Tardive dystonia BETTER, No.",[3]; TD-NO (n=5),3
same,"Tardive dystonia NO CHANGE, %",[3]; TD-NO (n=5),40.0%
same,"Tardive dystonia NO CHANGE, No.",[3]; TD-NO (n=5),2
same,"Tardive dystonia WORSE, %",[3]; TD-NO (n=5),0.0%
same,"Tardive dystonia WORSE, No.",[3]; TD-NO (n=5),none
same,"Tardive dystonia WORSE, No.","[3]; TD-NO (n=5), listed as Phenylalanine",0
same,"Tardive dystonia BETTER, %",[3]; TD-YES (n=14),7.1%
same,"Tardive dystonia BETTER, No.",[3]; TD-YES (n=14),1
same,"Tardive dystonia NO CHANGE, %",[3]; TD-YES (n=14),42.9%
same,"Tardive dystonia NO CHANGE, No.",[3]; TD-YES (n=14),6
same,"Tardive dystonia WORSE, %",[3]; TD-YES (n=14),50.0%
same,"Tardive dystonia WORSE, No.",[3]; TD-YES (n=14),7
same,patients whose akathisia symptoms were impacted,[4]; 2 hours,81.0%
same,"Akathisia BETTER, %","[4]; 2 hours, ALL (n=105)",33.4%
same,"Akathisia BETTER, No.","[4]; 2 hours, ALL (n=105)",35 patients
same,"Akathisia NO CHANGE, %","[4]; 2 hours, ALL (n=105)",19.0%
same,"Akathisia NO CHANGE, No.","[4]; 2 hours, ALL (n=105)",20 patients
same,"Akathisia WORSE, %","[4]; 2 hours, ALL (n=105)",47.6%
same,"Akathisia WORSE, No.","[4]; 2 hours, ALL (n=105)",50 patients
same,"Akathisia BETTER, %",[4]; TD-NO (n=42),23.8%
same,"Akathisia BETTER, No.",[4]; TD-NO (n=42),10
same,"Akathisia NO CHANGE, %",[4]; TD-NO (n=42),16.7%
same,"Akathisia NO CHANGE, No.",[4]; TD-NO (n=42),7
same,"Akathisia WORSE, %",[4]; TD-NO (n=42),59.5%
same,"Akathisia WORSE, No.",[4]; TD-NO (n=42),25
same,"Akathisia BETTER, %",[4]; TD-YES (n=63),39.7%
same,"Akathisia BETTER, No.",[4]; TD-YES (n=63),25
same,"Akathisia NO CHANGE, %",[4]; TD-YES (n=63),21.6%
same,"Akathisia NO CHANGE, No.",[4]; TD-YES (n=63),13
same,"Akathisia WORSE, %",[4]; TD-YES (n=63),39.7%
same,"Akathisia WORSE, No.",[4]; TD-YES (n=63),25
same,time of peak phenylalanine plasma level,[5],2 h
same,affinity for the blood brain barrier,[6],highest affinity for the blood brain barrier
same,percentage change in plasma level,[7]; in vivo,larger percentage changes
same,post challenge phenylalanine to LNAA ratio,[7]; in vivo,significantly higher
same,patients whose Parkinsonism symptoms were impacted,[8]; 2 hours,88.6%
same,"Parkinsonism BETTER, %","[8]; 2 hours, ALL (n=185)",42.7%
same,"Parkinsonism BETTER, No.","[8]; 2 hours, ALL (n=185)",79 patients
same,"Parkinsonism NO CHANGE, %","[8]; 2 hours, ALL (n=185)",11.3%
same,"Parkinsonism NO CHANGE, No.","[8]; 2 hours, ALL (n=185)",21 patients
same,"Parkinsonism WORSE, %","[8]; 2 hours, ALL (n=185)",45.9%
same,"Parkinsonism WORSE, No.","[8]; 2 hours, ALL (n=185)",85 patients
same,"Parkinsonism WORSE, %","[8]; 2 hours, ALL (n=185), listed as Phe",46%
same,"Parkinsonism NO CHANGE, %",[8]; [12],11.4%
same,"Parkinsonism WORSE, %",[8]; [12],45.9%
same,"Parkinsonism BETTER, %",[8]; TD-NO (n=84),40.5%
same,"Parkinsonism BETTER, No.",[8]; TD-NO (n=84),34
same,"Parkinsonism NO CHANGE, %",[8]; TD-NO (n=84),13.1%
same,"Parkinsonism NO CHANGE, No.",[8]; TD-NO (n=84),11
same,"Parkinsonism WORSE, %",[8]; TD-NO (n=84),46.4%
same,"Parkinsonism WORSE, No.",[8]; TD-NO (n=84),39
same,"Parkinsonism BETTER, %",[8]; TD-YES (n=101),44.5%
same,"Parkinsonism BETTER, No.",[8]; TD-YES (n=101),45
same,"Parkinsonism NO CHANGE, %",[8]; TD-YES (n=101),9.9%
same,"Parkinsonism NO CHANGE, No.",[8]; TD-YES (n=101),10
same,"Parkinsonism WORSE, %",[8]; TD-YES (n=101),45.6%
same,"Parkinsonism WORSE, No.",[8]; TD-YES (n=101),46
same,TD symptom change,"[9]; Patient B, coexisting TD and tardive dystonia",did not show a symptom increase
same,patients with an increase in TD symptom severity,[9]; after Phe challenge 100 mg/kg,three out of four
same,"increase in TD symptom severity, range over patients","[9]; after Phe challenge 100 mg/kg, three patients",69% to 440
same,patients with an increase in TD symptom severity,"[9]; after Phe challenge 100 mg/kg, listed as Phe",Three
same,plasma phenylalanine and phenylalanine/LNAA ratio after phenylalanine challenge,[10],statistically significant higher levels
"NCCc1ccccc1 [phenylethylamine, reference compound]",motor effect,serotonin receptors,produces a motor syndrome which can be blocked by serotonin antagonists
same,"Plasma level, Percent Change (Postloading/Fasting)",[7]; [13],+14.7%
same,"Plasma level, Post-loading",[7]; [13],0.0951 ± 0.0192 ng/mL
same,"Plasma level, Fasting",[7]; [13],0.0829 ± 0.0198 ng/mL
same,"Plasma level, Percent Change (Postloading/Fasting)",[7]; [14],+5.9%
same,"Plasma level, Post-loading",[7]; [14],0.0927 ± 0.0218 ng/mL
same,"Plasma level, Fasting",[7]; [14],0.0875 ± 0.0305 ng/mL
same,phenylethylamine level change,"[7]; persistence group, but not in remission group",significantly increased
CC(C)NCC(O)COc1cccc2ccccc12 (centres unmarked) [propranolol],treatment of neuroleptic-induced akathisia,[11],successful in some patients
N[C@@H](Cc1c[nH]c2ccccc12)C(=O)O [tryptophan],effect on TD,[1]; two case reports,reduction of TD symptoms
same,"decrease in tryptophan/LNAA ratio, greater in remittance group",[7]; in vivo,35%
same,magnitude of decrease in tryptophan/LNAA ratio,[7]; in vivo,significantly greater
N[C@@H](Cc1ccc(O)cc1)C(=O)O [tyrosine],"Plasma LNAA Ratio, Percent Change (Postloading/Fasting)",[7]; [13],0%
same,"Plasma level, Percent Change (Postloading/Fasting)",[7]; [13],+23.1%
same,"Plasma LNAA Ratio, Post-loading",[7]; [13],0.103 ± 0.012
same,"Plasma level, Post-loading",[7]; [13],85.3 ± 22.6 µM
same,"Plasma LNAA Ratio, Fasting",[7]; [13],0.103 ± 0.012
same,"Plasma level, Fasting",[7]; [13],69.3 ± 14.8 µM
same,"Plasma LNAA Ratio, Percent Change (Postloading/Fasting)",[7]; [14],0%
same,"Plasma level, Percent Change (Postloading/Fasting)",[7]; [14],+30.1%
same,"Plasma LNAA Ratio, Post-loading",[7]; [14],0.090 ± 0.020
same,"Plasma level, Post-loading",[7]; [14],84.3 ± 23.5 µM
same,"Plasma LNAA Ratio, Fasting",[7]; [14],0.090 ± 0.022
same,"Plasma level, Fasting",[7]; [14],64.8 ± 17.1 µM
same,percentage change in plasma level,"[7]; symptom remission group vs persistence group, 30 males",larger percentage changes
CC(C)[C@H](N)C(=O)O [valine],percentage change in plasma level,[7]; in vivo,larger percentage changes
same,valine/LNAA ratio change,[7]; in vivo,increased significantly
